Source: patent publication US20260273074A1, “FERRITIN-TARGETING PROTACS AND METHODS OF INDUCING PYROPTOSIS” (Wisconsin Alumni Research Foundation, priority 2023, published 2026)

Columns and labels:
[1] = biological target: T1, apoferritin from equine spleen (Equus caballus, UniProt P02791); assay: Isothermal titration calorimetry (ITC) binding to ferritin
T1 construct: the apoferritin from equine spleen (A3660, Sigma-Aldrich) that is not combined with iron was used; purchased Sigma-Aldrich A3660; host or cells: equine spleen (tissue-derived)
T1 sequence (P02791 2-175 limits assumed): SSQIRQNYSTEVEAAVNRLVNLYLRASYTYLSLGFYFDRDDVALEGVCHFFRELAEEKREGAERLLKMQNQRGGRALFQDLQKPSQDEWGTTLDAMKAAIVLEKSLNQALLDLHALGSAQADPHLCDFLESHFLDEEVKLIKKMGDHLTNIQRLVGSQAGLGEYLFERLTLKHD
Method: As for the ferritin proteins, the apoferritin from equine spleen (A3660, Sigma-Aldrich) that is not combined with iron was used. Before the ITC test, 1 mL of apoferritin in glycerol solution (50% glycerol and 0.075 M NaCl) was placed in a dialysis bag with a molecular weight cut-off of 3 kDa. The dialysis bags were then immersed in the prepared solution (20 mM Tris-HCl, pH 8.5, and 130 mM NaCl) and stirred at room temperature. The dialysis buffer was changed every 24 h for three times, and the last buffer was collected and 0.05% DMSO was added to serve as the ITC buffer. As for the oleic acid, 12 μM apoferritin in the ITC buffer was placed in the ITC cell, and the syringe was full of 250 μM oleic acid in the same ITC buffer. Besides the first injection with 5 μL of the oleic acid solution, 18 aliquots with 10 μL of the oleic acid solution were titrated into the apoferritin solution with a time interval of 300 s. […] Besides the first injection with 1 μL of the apoferritin solution, 25 aliquots were titrated with a time interval of 300 s. Raw data were corrected for control titrations (the solution in the syringe into the blank ITC buffer in the cell) and integrated using Origin 7.0 (MicroCal). Binding kinetics parameters, including N, Kd, ΔH, and ΔS, were calculated using a single-class binding site model.

ferritin and VHL = biological target: T2, ferritin and VHL (Mus musculus, UniProt P09528+P29391+P40338); assay: Co-immunoprecipitation of ferritin with anti-VHL antibody (ternary complex formation); format: cell-based, murine; settings: B16F10 cells, 5 μM, 2 h
T2 construct: endogenous in cells; host or cells: B16F10 (murine melanoma)
Method: Co-Immunoprecipitation assay: B16F10 cells were seeded in T75 cell culture flasks (2×10^6 cells per well) and cultured for 24 h. […] After incubation for 2 h, cells were washed with cold PBS and lysed on ice with IP lysis buffer (50 mM Tris-HCl, pH 7.4; 150 mM NaCl; 2 mM EDTA; 1% NP-40) containing phenylmethylsulfonyl fluoride (PMSF, 1 mM) and the phosphatase inhibitor cocktail for 30 min. The lysates were collected and centrifuged at 10,000 g for 10 minutes at 4° C. On the one hand, 10 μL of lysate supernatants were saved as the input samples. On the other hand, 25 μL of magnetic beads was added to each supernatant in microcentrifuge tubes, and the resulting mixtures were incubated at 4° C. with gentle rotation for 30 min. Next, the sample-containing tube was placed on a magnetic rack for 1 minute, and the supernatant was transferred into a new microcentrifuge tube placed on ice, serving as the precleared samples. The total proteins in the precleared samples were quantified through the BCA assay. Each precleared lysate was added an appropriate amount of mouse monoclonal IgG1 κ anti-VHL antibody (sc-135657, Santa Cruz Biotechnology) and then incubated at 4° C. for 2 hours with gentle rotation. After that, the pre-washed magnetic bead (equal to 25 μL of magnetic beads) was added to each sample. The resulting mixtures were incubated at room temperature for 1 h with gentle rotation. […]

B16F10 cells [2] = assay: Determination of intracellular free iron content; format: cell-based, murine; settings: 5 μM, 8 h
Method: Determination of free iron content: Here, the focus was on detecting the intracellular free iron ions rather than protein-bound iron contents. The procedures for sample preparation were based on a previously reported method. B16F10 cells were seeded in T75 cell culture flasks (2×10^6 cells per well) and cultured for 24 h. […] After incubation for 8 h, cells were harvested and resuspended in 1 mL PBS. Besides, 800 μL of PBS cell suspension was subjected to centrifugation, and 780 μL of the supernatant was carefully removed. Afterward, 280 μL of ultrapure water was added to the cell precipitate. Following shaking at horizontal rotators for 12 h, the supernatant was transferred into 30 KDa ultrafiltration centrifuge tube after twice centrifugation at 2,000 g for 20 min. […] The lysates were centrifuged at 12,000 rpm for 10 min at 4° C., followed by quantification of the total proteins in the supernatant through the BCA assay.
As for iron content determination, 200 μL of the abovementioned filtrates were collected and treated with 10 μL of hydrochloric acid solution (6 mol/L), 100 μL of acetic acid-sodium acetate buffer (pH=4.5), 10 μL of 10% aqueous hydroxylamine hydrochloride, and 100 μL of o-phenanthroline (1 mg/mL). […] The iron ion content could be calculated according to the standard curve. […]

B16F10 cells [3] = assay: Morphology observation (pyroptosis); format: cell-based, murine; settings: 5 μM, 24 h
Method: Morphology observation: 5×10^4 B16F10 cells were seeded in confocal dishes and cultured for 24 h at 37° C. […] After incubation for 24 h, the cells were washed with PBS and subjected to a Nikon Eclipse Ti Intensilight fluorescence microscope in a phase contrast mode for observation.

cleaved caspase 3 = assay: Western blot of cleaved caspase 3 in B16F10 cells; format: cell-based, murine; settings: 8 h
Method: As for the determination of cleaved-GSDME and cleaved-caspase-3, B16F10 cells were seeded in 6-well culture plates (2×10^5 cells per well) and cultured for 24 h. Then the medium in the corresponding wells except the negative control was replaced with 1 mL of medium containing ferritin degraders, albumin nanoparticles, or the degrader with inhibitors at the indicated concentrations. Incubation for another 6 or 8 h was used to test the cleaved-caspase-3, while treatment for another 16 or 20 h was used to test cleaved-GSDME. The following procedures were the same as mentioned above.

[4] = Solubility in the ITC buffer; format: physicochemical; settings: 20 mM Tris-HCl pH 8.5, 130 mM NaCl, 0.05% DMSO

T2 sequence (P09528 2-182 limits assumed): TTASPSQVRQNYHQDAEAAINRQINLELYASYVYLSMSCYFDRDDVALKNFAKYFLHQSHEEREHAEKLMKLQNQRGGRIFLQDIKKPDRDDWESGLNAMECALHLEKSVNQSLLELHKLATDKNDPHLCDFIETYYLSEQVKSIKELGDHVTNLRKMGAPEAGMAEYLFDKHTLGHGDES
T2 sequence (P29391 2-183 limits assumed): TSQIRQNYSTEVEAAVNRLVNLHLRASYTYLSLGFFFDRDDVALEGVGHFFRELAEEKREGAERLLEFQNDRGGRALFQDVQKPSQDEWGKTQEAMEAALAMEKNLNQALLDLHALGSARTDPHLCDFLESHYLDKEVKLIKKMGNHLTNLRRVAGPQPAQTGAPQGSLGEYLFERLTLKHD
T2 sequence (P40338 whole entry): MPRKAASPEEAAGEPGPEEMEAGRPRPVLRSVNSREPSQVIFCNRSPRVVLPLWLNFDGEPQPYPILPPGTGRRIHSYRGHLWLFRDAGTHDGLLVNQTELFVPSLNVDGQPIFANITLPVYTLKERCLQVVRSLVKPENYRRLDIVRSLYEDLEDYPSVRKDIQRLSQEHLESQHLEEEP
T2 sequence (P62869 whole entry partner): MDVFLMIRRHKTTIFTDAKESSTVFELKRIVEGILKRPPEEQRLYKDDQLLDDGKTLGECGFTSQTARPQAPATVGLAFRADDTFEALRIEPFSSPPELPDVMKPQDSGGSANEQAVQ
T2 sequence (P83940 whole entry partner): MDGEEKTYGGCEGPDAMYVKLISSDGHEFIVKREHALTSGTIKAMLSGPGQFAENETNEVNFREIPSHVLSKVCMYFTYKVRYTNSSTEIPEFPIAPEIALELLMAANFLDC

CCCCCCCCC=CCCCCCCCC(=O)NCCCC(=O)NC(C(=O)N1CC(O)CC1C(=O)NCc1ccc(-c2scnc2C)cc1)C(C)(C)C (stereo not drawn) [DeFer-2]
Kd [1]: 17.1 ± 1.96 µM
ferritin co-precipitated with VHL (ferritin and VHL): could induce ferritin co-precipitated with VHL
intracellular free iron content (B16F10 cells [2]): significant elevation
morphology of dying cells (B16F10 cells [3]): obvious swelling and characteristic membrane blebbing
level of cleaved caspase 3 (cleaved caspase 3): increased the level of cleaved caspase 3 in a dose-dependent manner
solubility in the ITC buffer [4]: relatively low solubility
